{"source": "patent US10457655B2", "about": "“Compounds and compositions for inhibition of FASN” (FORMA Therapeutics, Inc., priority 2013, dated 2019)", "data": [{"target": "FASN enzyme (Homo sapiens, UniProt P49327)", "sequence (P49327 whole entry)": "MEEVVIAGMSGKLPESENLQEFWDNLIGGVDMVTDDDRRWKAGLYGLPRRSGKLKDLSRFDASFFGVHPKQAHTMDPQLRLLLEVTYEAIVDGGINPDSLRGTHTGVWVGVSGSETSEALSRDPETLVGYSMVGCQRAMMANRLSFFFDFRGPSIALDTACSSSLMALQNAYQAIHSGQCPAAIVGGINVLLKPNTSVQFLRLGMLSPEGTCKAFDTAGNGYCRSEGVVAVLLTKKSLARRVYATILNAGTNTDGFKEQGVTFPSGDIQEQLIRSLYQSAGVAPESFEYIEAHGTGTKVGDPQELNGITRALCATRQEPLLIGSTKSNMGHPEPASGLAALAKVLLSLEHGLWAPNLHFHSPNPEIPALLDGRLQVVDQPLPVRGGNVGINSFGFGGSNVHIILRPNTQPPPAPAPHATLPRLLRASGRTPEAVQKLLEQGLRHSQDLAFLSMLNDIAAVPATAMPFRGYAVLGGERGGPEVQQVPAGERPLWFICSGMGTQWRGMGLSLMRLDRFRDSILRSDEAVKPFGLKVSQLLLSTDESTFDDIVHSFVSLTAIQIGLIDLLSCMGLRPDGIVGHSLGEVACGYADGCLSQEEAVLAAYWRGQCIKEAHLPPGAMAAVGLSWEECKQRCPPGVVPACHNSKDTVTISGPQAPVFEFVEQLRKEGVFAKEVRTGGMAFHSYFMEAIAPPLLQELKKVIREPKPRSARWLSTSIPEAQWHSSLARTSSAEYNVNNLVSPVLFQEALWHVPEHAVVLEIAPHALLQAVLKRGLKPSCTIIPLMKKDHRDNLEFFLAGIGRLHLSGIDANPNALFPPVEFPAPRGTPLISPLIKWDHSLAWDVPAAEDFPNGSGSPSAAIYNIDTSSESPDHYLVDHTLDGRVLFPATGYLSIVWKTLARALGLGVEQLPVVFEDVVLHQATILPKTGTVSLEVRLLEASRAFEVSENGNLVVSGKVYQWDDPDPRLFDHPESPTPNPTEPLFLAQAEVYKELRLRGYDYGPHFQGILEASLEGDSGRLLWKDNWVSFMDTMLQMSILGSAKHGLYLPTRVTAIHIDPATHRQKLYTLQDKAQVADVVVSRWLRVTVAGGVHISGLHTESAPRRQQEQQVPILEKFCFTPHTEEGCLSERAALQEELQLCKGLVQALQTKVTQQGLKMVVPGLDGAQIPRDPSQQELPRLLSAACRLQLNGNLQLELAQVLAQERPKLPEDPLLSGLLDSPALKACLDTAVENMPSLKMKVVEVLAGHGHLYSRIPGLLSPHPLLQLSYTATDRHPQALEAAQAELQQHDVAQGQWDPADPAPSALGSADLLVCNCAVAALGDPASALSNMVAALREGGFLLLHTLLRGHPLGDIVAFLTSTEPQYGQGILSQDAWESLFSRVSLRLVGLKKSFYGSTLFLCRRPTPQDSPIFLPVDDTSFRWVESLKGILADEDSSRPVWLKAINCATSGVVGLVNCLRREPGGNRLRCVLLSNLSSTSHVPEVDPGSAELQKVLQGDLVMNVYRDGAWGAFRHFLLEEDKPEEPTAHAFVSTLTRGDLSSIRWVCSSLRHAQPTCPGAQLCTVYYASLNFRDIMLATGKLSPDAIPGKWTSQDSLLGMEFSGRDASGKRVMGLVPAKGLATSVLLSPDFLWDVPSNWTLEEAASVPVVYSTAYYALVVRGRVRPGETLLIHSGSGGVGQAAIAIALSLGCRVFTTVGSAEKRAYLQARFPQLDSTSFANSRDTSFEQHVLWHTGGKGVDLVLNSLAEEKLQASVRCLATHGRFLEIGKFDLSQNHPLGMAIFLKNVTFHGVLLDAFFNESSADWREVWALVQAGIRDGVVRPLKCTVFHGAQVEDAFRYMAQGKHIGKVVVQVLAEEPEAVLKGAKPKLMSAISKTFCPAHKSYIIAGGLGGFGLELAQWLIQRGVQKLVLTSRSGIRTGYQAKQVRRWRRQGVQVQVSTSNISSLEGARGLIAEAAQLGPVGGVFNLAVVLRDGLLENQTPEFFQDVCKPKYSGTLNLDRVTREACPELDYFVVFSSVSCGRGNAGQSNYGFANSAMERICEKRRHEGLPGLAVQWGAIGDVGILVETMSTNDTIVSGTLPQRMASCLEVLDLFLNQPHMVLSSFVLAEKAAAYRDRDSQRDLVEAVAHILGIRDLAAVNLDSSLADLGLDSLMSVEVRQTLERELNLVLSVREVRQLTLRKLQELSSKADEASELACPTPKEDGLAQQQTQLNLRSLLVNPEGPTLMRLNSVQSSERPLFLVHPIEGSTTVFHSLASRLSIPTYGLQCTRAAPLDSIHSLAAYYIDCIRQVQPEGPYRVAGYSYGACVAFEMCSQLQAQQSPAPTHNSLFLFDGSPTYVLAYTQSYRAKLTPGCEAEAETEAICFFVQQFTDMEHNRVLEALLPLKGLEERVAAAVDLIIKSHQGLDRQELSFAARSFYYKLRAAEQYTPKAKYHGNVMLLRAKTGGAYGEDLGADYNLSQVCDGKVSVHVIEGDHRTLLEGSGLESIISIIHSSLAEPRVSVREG", "test": "Enzymatic Assay for FASN Inhibitors", "format": "biochemical", "details": "not given", "protocol": "(§1) Assays were performed in a 384-well black plate to measure the inhibition of FASN activities by individual compounds herein disclosed. An aliquot of 250 nL of compound was incubated with 10 μL of 40 nM FASN enzyme in assay buffer (50 mM HEPES pH=7.3, 0.5 mM EDTA, 1 mM Ascorbate, 100 mM NaCl and 0.04% TritonX-100) in each well at 25° C. for 60 minutes. After the plate was centrifuged briefly, 10 μL of substrate mix (20 μM Acetyl-CoA, 60 μM Malonyl-CoA, and 100 μM NADPH in assay buffer) was added to each well. The reaction was maintained at 25° C. for 90 minutes. The reaction was then quenched by adding 10 μL of 90 μM 7-Diethylamino-3-(4′-Maleimidylpheynyl)-4-Methylcoumarin in 50/50 Ethanol/H2O solution. The assay plate was incubated at 25° C. for 15 minutes, and read on a plate reader with excitation and emission wavelength at 360 nm and 530 nm, respectively. The IC50 of a given compound was calculated by fitting the dose response curve with a four parameter logistic equation.", "units": {"IC50": "nM"}, "values": [{"compound": "O=C(c1ccc(-c2cc(Cl)cc3[nH]c(=O)[nH]c23)cc1)N1CCN(C(=O)C2(O)CC2)CC1", "note": "[6-chloro-4-{4-[4-(1-hydroxycyclopropanecarbonyl)piperazine-1-carbonyl]phenyl}-2,3-dihydro-1H-1,3-benzodiazol-2-one]", "IC50": "< 500"}, {"compound": "Cn1ncc2cc(-c3ccc(C(=O)N4CCN(C(=O)C5(O)CC5)CC4)cc3)ccc21", "note": "[1-[(4-{[4-(1-methyl-1H-indazol-5-yl)phenyl]carbonyl}piperazin-1-yl)carbonyl]cyclopropan-1-ol]", "IC50": "< 500"}, {"compound": "O=C(c1ccc(-c2ccc(-c3cn[nH]c3)cc2)cc1)N1CCN(C(=O)C2(O)CC2)CC1", "IC50": "< 500"}, {"compound": "O=C(c1ccc(N2CCc3cccnc3C2)cc1F)N1CCN(C(=O)C2(O)CC2)CC1", "note": "[1-{4-[2-fluoro-4-(5,6,7,8-tetrahydro-1,7-naphthyridin-7-yl)benzoyl]piperazine-1-carbonyl}cyclopropan-1-ol]", "IC50": "< 500"}, {"compound": "C[C@H]1CN(C(=O)C2(O)CC2)CCN1C(=O)c1ccc(-c2ccc3c(c2)ncn3C)cc1", "IC50": "< 500"}, {"compound": "Cn1cc2ccc(-c3ccc(C(=O)N4CCN(C(=O)C5(N)CC5)CC4)c(F)c3)cc2n1", "note": "[1-{4-[2-fluoro-4-(2-methyl-2H-indazol-6-yl)benzoyl]piperazine-1-carbonyl}cyclopropan-1-amine]", "IC50": "< 500"}, {"compound": "Cn1cnc2cc(-c3ccc(C(=O)N4CCN(C(=O)C5(O)CC5)CC4(C)C)cc3)ccc21", "IC50": "< 500"}, {"compound": "Cn1cc(-c2ccc(-c3ccc(C(=O)N4CCN(C(=O)C5(O)CC5)CC4)cc3)cc2)cn1", "note": "[1-(4-{4-[4-(1-methyl-1H-pyrazol-4-yl)phenyl]benzoyl}piperazine-1-carbonyl)cyclopropan-1-ol]", "IC50": "< 500"}, {"compound": "O=C(c1ccc(N2Cc3ccccc3C2)cc1)N1CCN(C(=O)C2(O)CC2)CC1", "note": "[1-{4-[4-(2,3-dihydro-1H-isoindol-2-yl)benzoyl]piperazine-1-carbonyl}cyclopropan-1-ol]", "IC50": "< 500"}, {"compound": "O=C(c1ccc(-c2cccc3[nH]cnc23)cc1Cl)N1CCN(C(=O)C2(O)CC2)CC1", "note": "[1-{4-[4-(1H-1,3-benzodiazol-4-yl)-2-chlorobenzoyl]piperazine-1-carbonyl}cyclopropan-1-ol]", "IC50": "< 500"}, {"compound": "O=C(c1ccc(N2CCc3ccccc3C2)cc1)N1CCN(C(=O)C2(O)CC2)CC1", "note": "[1-{4-[4-(1,2,3,4-tetrahydroisoquinolin-2-yl)benzoyl]piperazine-1-carbonyl}cyclopropan-1-ol]", "IC50": "< 500"}, {"compound": "O=C(c1ccc(-c2ccc3[nH]c(=O)ccc3c2)cc1)N1CCN(C(=O)C2(O)CC2)CC1", "IC50": "< 500"}, {"compound": "Nc1cc(-c2cccc(-c3ccc(C(=O)N4CCN(C(=O)C5(O)CC5)CC4)cc3)c2)no1", "note": "[1-(4-{4-[3-(5-amino-1,2-oxazol-3-yl)phenyl]benzoyl}piperazine-1-carbonyl)cyclopropan-1-ol]", "IC50": "< 500"}, {"compound": "C[C@@H]1CN(C(=O)C2(O)CC2)CCN1C(=O)c1ccc(-c2ccc(Cl)cc2F)cc1", "IC50": "< 500"}, {"compound": "C[C@@H]1CN(C(=O)c2ccc(-c3ccc4c(c3)ncn4C)cc2)CCN1C(=O)C1(O)CC1", "note": "[1-[(2R)-2-methyl-4-[4-(1-methyl-1H-1,3-benzodiazol-5-yl)benzoyl]piperazine-1-carbonyl]cyclopropan-1-ol]", "IC50": "< 500"}, {"compound": "C[C@@H]1CN(C(=O)C2(O)CC2)C[C@H](C)N1C(=O)c1ccc(-c2ccc3c(c2)ncn3C)cc1", "IC50": "< 500"}, {"compound": "Cn1cnc2cc(-c3ccc(C(=O)N4CCN(C(=O)C5(O)CC5)CC45CC5)cc3)ccc21", "note": "[1-{4-[4-(1-methyl-1H-1,3-benzodiazol-5-yl)benzoyl]-4,7-diazaspiro[2.5]octane-7-carbonyl}cyclopropan-1-ol]", "IC50": "< 500"}, {"compound": "Cn1cc2ccc(-c3cc(F)c(C(=O)N4CCN(C(=O)C5(N)CC5)CC4)c(F)c3)cc2n1", "note": "[1-{4-[2,6-difluoro-4-(2-methyl-2H-indazol-6-yl)benzoyl]piperazine-1-carbonyl}cyclopropan-1-amine]", "IC50": "< 500"}, {"compound": "O=C(c1ccc(-c2ccc3ccnn3c2)cc1)N1CCN(C(=O)C2(O)CC2)CC1", "note": "[1-[4-(4-{pyrazolo[1,5-a]pyridin-6-yl}benzoyl)piperazine-1-carbonyl]cyclopropan-1-ol]", "IC50": "< 500"}, {"compound": "Cc1nn(C)c2ccc(-c3ccc(C(=O)N4CCN(C(=O)C5(O)CC5)CC4)cc3Cl)cc12", "note": "[1-{4-[3-chloro-4-(1,3-dimethyl-1H-indazol-5-yl)benzoyl]piperazine-1-carbonyl}cyclopropan-1-ol]", "IC50": "< 500"}, {"compound": "N#CC1(c2cccc(-c3ccc(C(=O)N4CCN(C(=O)C5(O)CC5)CC4)cc3)c2)CC1", "IC50": "< 500"}, {"compound": "C[C@@H]1CN(C(=O)C2(O)CC2)CCN1C(=O)c1ccc(-c2ccc3c(c2)ncn3C)cc1", "note": "[1-[(3R)-3-methyl-4-[4-(1-methyl-1H-1,3-benzodiazol-5-yl)benzoyl]piperazine-1-carbonyl]cyclopropan-1-ol]", "IC50": "< 500"}, {"compound": "Cc1n[nH]c2c(-c3ccc(C(=O)N4CCN(C(=O)C5(O)CC5)CC4)c(F)c3)cccc12", "note": "[1-{4-[2-fluoro-4-(3-methyl-1H-indazol-7-yl)benzoyl]piperazine-1-carbonyl}cyclopropan-1-ol]", "IC50": "< 500"}, {"compound": "Cn1cnc2cc(-c3ccc(C(=O)N4CCN(C(=O)C5(N)CC5)CC4)c(F)c3)ccc21", "note": "[1-{4-[2-fluoro-4-(1-methyl-1H-1,3-benzodiazol-5-yl)benzoyl]piperazine-1-carbonyl}cyclopropan-1-amine]", "IC50": "< 500"}, {"compound": "CC1(c2cccc(-c3ccc(C(=O)N4CCN(C(=O)C5(O)CC5)CC4)cc3)c2)NC(=O)NC1=O", "note": "(stereo not drawn)", "IC50": "< 500"}, {"compound": "CNC(=O)COc1cccc(-c2ccc(C(=O)N3CCN(C(=O)C4(O)CC4)CC3)cc2)c1", "note": "[2-(3-{4-[4-(1-hydroxycyclopropanecarbonyl)piperazine-1-carbonyl]phenyl}phenoxy)-N-methylacetamide]", "IC50": "< 500"}, {"compound": "O=C(c1ccc(N2CCc3c([nH]c4ccccc34)C2)cc1)N1CCN(C(=O)C2(O)CC2)CC1", "note": "[1-[4-(4-{1H,2H,3H,4H,9H-pyrido[3,4-b]indol-2-yl}benzoyl)piperazine-1-carbonyl]cyclopropan-1-ol]", "IC50": "< 500"}, {"compound": "O=C(c1ccc(-c2nc3ccccn3c2Cl)cc1Cl)N1CCN(C(=O)C2(O)CC2)CC1", "note": "[1-[4-(2-chloro-4-{3-chloroimidazo[1,2-a]pyridin-2-yl}benzoyl)piperazine-1-carbonyl]cyclopropan-1-ol]", "IC50": "< 500"}, {"compound": "Cn1cc2ccc(-c3ccc(C(=O)N4CCN(C(=O)C5(O)CC5)CC4)cc3F)cc2n1", "note": "[1-{4-[3-fluoro-4-(2-methyl-2H-indazol-6-yl)benzoyl]piperazine-1-carbonyl}cyclopropan-1-ol]", "IC50": "< 500"}, {"compound": "C[C@H]1CN(C(=O)c2ccc(-c3ccc4cn(C)nc4c3)cc2)CCN1C(=O)C1(O)CC1", "note": "[1-[(2S)-2-methyl-4-[4-(2-methyl-2H-indazol-6-yl)benzoyl]piperazine-1-carbonyl]cyclopropan-1-ol]", "IC50": "< 500"}]}, {"target": "FASN enzyme (Homo sapiens, UniProt P49327)", "test": "Enzymatic Assay for FASN Inhibitors", "format": "biochemical", "details": "FASN enzymatic assay; Table 2-2", "protocol": "as §1", "units": {"IC50": "nM"}, "values": [{"compound": "COc1ccc2nc(-c3ccc(C(=O)N4CCN(C(=O)C5(O)CC5)CC4)cc3)cn2c1", "note": "[1-({4-[(4-{6-methoxyimidazo[1,2-a]pyridin-2-yl}phenyl)carbonyl]piperazin-1-yl}carbonyl)cyclopropan-1-ol]", "IC50": "500 to 5000"}, {"compound": "O=C(c1ncc(-c2ccc3ncccc3c2)cn1)N1CCN(C(=O)C2(O)CC2)CC1", "note": "[1-[(4-{[5-(quinolin-6-yl)pyrimidin-2-yl]carbonyl}piperazin-1-yl)carbonyl]cyclopropan-1-ol]", "IC50": "500 to 5000"}, {"compound": "O=C(c1ccc2nc(-c3ccc(F)cc3)sc2c1)N1CCN(C(=O)C2(O)CC2)CC1", "note": "[1-[(4-{[2-(4-fluorophenyl)-1,3-benzothiazol-6-yl]carbonyl}piperazin-1-yl)carbonyl]cyclopropan-1-ol]", "IC50": "500 to 5000"}, {"compound": "CNC(=O)c1ccc(F)c(-c2ccc(C(=O)N3CCN(C(=O)C4(O)CC4)CC3)cc2)c1", "note": "[4-fluoro-3-[4-({4-[(1-hydroxycyclopropyl)carbonyl]piperazin-1-yl}carbonyl)phenyl]-N-methylbenzamide]", "IC50": "500 to 5000"}, {"compound": "COc1cc(-c2ccc3scnc3c2)ccc1C(=O)N1CCN(C(=O)C2(O)CC2)CC1", "note": "[1-[(4-{[4-(1,3-benzothiazol-5-yl)-2-methoxyphenyl]carbonyl}piperazin-1-yl)carbonyl]cyclopropan-1-ol]", "IC50": "500 to 5000"}, {"compound": "O=C(c1ccc(-c2nc3cc(F)c(F)cc3[nH]2)cc1)N1CCN(C(=O)C2(O)CC2)CC1", "note": "[1-[(4-{[4-(5,6-difluoro-1H-1,3-benzodiazol-2-yl)phenyl]carbonyl}piperazin-1-yl)carbonyl]cyclopropan-1-ol]", "IC50": "500 to 5000"}]}, {"target": "FASN enzyme (Homo sapiens, UniProt P49327)", "test": "Enzymatic Assay for FASN Inhibitors", "format": "biochemical", "details": "FASN enzymatic assay; Table 2-3", "protocol": "as §1", "units": {"IC50": "nM"}, "values": [{"compound": "O=C(c1ccc(-c2cnc3cccnc3c2)cc1)N1CCN(C(=O)C2(O)CC2)CC1", "note": "[1-[(4-{[4-(1,5-naphthyridin-3-yl)phenyl]carbonyl}piperazin-1-yl)carbonyl]cyclopropan-1-ol]", "IC50": "≥ 5000"}, {"compound": "O=C(c1ccc(-c2cc(F)ccc2F)cc1)N1CCN(C(=O)C2(O)CC2)CC1", "note": "[1-[(4-{[4-(2,5-difluorophenyl)phenyl]carbonyl}piperazin-1-yl)carbonyl]cyclopropan-1-ol]", "IC50": "≥ 5000"}, {"compound": "Cc1ccc(-c2ccc(C(=O)N3CCN(C(=O)C4(O)CC4)CC3)cc2)cn1", "note": "[1-[(4-{[4-(6-methylpyridin-3-yl)phenyl]carbonyl}piperazin-1-yl)carbonyl]cyclopropan-1-ol]", "IC50": "≥ 5000"}, {"compound": "O=C(c1ccc(-c2ccc(Cl)cc2F)cc1)N1CCN(C(=O)C2(O)CC2)[C@H](CO)C1", "IC50": "≥ 5000"}, {"compound": "O=C(c1cn2cc(-c3ccc(F)cc3)ccc2n1)N1CCN(C(=O)C2(O)CC2)CC1", "note": "[1-[(4-{[6-(4-fluorophenyl)imidazo[1,2-a]pyridin-2-yl]carbonyl}piperazin-1-yl)carbonyl]cyclopropan-1-ol]", "IC50": "≥ 5000"}, {"compound": "CC(C)(O)C(=O)N1CCN(C(=O)c2ccc(-c3ccccc3)cc2)CC1", "note": "[2-hydroxy-2-methyl-1-{4-[(4-phenylphenyl)carbonyl]piperazin-1-yl}propan-1-one]", "IC50": "≥ 5000"}]}]}
